Experimental data taken from US20200354426A1 (MEDIMMUNE LIMITED, priority 2016, published 2020).
Numbered stars: 1 amine (or outer) side, 2 acyl side, 3 side chain; on linkers, the order of the positions; unused ones are H or OH. Side chains are listed from the residue outwards. Peptide text beside a SMILES is read from it. * marks the point of attachment. γGlu = O=C(O)[C@H](CCC(=O)[*:2])N[*:1]; Palmitoyl = CCCCCCCCCCCCCCCC(=O)*

Experiments:
Assay in all cases: cAMP activity assay in assay medium (assay 1)
Type in all cases: cell-based
Human GIPr = target: T1, Human GIPr (Homo sapiens, UniProt P48546); conditions: assay medium; Table 4; read-out: hGIPR EC50
T1 construct: expressed in transfected cells
T1 sequence (P48546 22-466): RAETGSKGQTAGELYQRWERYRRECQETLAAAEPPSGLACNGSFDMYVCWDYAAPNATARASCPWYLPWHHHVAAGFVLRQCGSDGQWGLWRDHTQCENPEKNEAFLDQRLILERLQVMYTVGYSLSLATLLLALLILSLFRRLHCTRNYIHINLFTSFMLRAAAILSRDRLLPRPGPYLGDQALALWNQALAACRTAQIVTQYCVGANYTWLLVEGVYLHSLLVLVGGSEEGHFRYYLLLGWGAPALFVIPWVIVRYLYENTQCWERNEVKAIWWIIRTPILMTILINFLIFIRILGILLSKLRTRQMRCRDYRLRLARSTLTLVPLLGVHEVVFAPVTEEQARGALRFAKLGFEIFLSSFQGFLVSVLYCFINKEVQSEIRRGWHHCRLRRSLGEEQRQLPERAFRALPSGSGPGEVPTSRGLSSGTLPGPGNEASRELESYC
Source text: (§1) Biological Activity of Peptides in Cell-Based cAMP Activity Assay (Assay 1):
(§2) All sample dilutions were made in duplicate.

Human GlucR = target: T2, Human GlucR (Homo sapiens, UniProt P47871); conditions: assay medium; Table 4; read-out: hGlucR EC50
T2 construct: expressed in transfected cells
T2 sequence (P47871 26-477): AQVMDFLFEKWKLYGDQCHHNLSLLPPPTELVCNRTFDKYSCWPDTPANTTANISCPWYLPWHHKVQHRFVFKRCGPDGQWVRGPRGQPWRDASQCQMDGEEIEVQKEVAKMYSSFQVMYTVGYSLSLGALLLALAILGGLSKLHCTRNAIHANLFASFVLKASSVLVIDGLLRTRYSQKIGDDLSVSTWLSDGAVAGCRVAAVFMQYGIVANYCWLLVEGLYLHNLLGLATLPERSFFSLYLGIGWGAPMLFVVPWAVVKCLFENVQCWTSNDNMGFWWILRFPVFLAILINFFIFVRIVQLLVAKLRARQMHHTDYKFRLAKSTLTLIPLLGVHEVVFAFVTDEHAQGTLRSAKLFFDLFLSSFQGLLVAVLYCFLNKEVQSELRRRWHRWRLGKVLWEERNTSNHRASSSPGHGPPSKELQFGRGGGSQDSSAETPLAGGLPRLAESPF
Source text: as §1, §2

Human GLP1R = Human GLP1R (Homo sapiens, UniProt P43220); parameters: expressed in transfected cells; conditions: assay medium; Table 4; read-out: hGLP1R EC50
Chain of Human GLP1R (P43220 24-463): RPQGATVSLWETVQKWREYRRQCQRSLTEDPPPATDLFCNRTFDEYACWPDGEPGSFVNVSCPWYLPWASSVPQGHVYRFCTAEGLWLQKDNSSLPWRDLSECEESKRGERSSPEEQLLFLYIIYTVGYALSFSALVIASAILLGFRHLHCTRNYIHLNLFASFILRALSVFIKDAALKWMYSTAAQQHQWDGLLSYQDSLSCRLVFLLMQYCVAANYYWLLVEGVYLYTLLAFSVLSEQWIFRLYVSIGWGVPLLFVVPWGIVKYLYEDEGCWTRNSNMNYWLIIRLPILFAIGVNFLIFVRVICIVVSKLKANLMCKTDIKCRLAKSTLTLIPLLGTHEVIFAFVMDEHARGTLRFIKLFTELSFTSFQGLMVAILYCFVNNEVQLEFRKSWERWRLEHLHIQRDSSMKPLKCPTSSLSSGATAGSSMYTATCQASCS
Source text: as §1, §2

EC50 (Human GIPr) [nM] | EC50 (Human GlucR) [nM] | EC50 (Human GLP1R) [nM] | SMILES
14.9 | 0.008 | 0.0203 | CCCCCCCCCCCCCCCC(=O)N[C@@H](CCC(=O)NCCCC[C@H](NC(=O)[C@H](Cc1ccc(O)cc1)NC(=O)[C@H](CCCCN)NC(=O)[C@H](CO)NC(=O)[C@H](Cc1ccc(O)cc1)NC(=O)[C@H](CC(=O)O)NC(=O)[C@H](CO)NC(=O)[C@@H](NC(=O)[C@H](Cc1ccccc1)NC(=O)[C@@H](NC(=O)CNC(=O)[C@H](CCC(N)=O)NC(=O)[C@H](CO)NC(=O)[C@@H](N)Cc1c[nH]cn1)[C@@H](C)O)[C@@H](C)O)C(=O)N[C@@H](CC(=O)O)C(=O)N[C@@H](CO)C(=O)N[C@@H](CCCNC(=N)N)C(=O)N[C@@H](CO)C(=O)N[C@@H](C)C(=O)N[C@@H](CCC(N)=O)C(=O)N[C@@H](CC(=O)O)C(=O)N[C@@H](Cc1ccccc1)C(=O)N[C@H](C(=O)N[C@@H](CCC(N)=O)C(=O)N[C@@H](Cc1c[nH]c2ccccc12)C(=O)N[C@@H](CC(C)C)C(=O)N[C@H](C(=O)N[C@@H](C)C(=O)NCC(=O)NCC(N)=O)C(C)C)C(C)C)C(=O)O [g670] (H-HSQGTFTSDYSKYK([γGlu-Palmitoyl])DSRSAQDFVQWLVAGG-NH2; N-terminus assumed)
1610 | 38.4 | 0.151 | CCCCCCCCCCCCCCCC(=O)N[C@@H](CCC(=O)NCCCC[C@H](NC(=O)[C@H](CO)NC(=O)[C@H](CC(=O)O)NC(=O)[C@H](CC(C)C)NC(=O)[C@H](Cc1ccc(O)cc1)NC(=O)[C@H](CCC(=O)O)NC(=O)[C@H](CO)NC(=O)[C@H](Cc1ccc(O)cc1)NC(=O)[C@H](CC(=O)O)NC(=O)[C@H](CO)NC(=O)[C@@H](NC(=O)[C@H](Cc1ccccc1)NC(=O)[C@@H](NC(=O)CNC(=O)[C@H](CCC(N)=O)NC(=O)CNC(=O)[C@@H](N)Cc1c[nH]cn1)[C@@H](C)O)[C@@H](C)O)C(=O)N[C@@H](CCCNC(=N)N)C(=O)N[C@@H](C)C(=O)N[C@@H](CCCNC(=N)N)C(=O)N[C@@H](CC(=O)O)C(=O)N[C@@H](Cc1ccccc1)C(=O)N[C@H](C(=O)N[C@@H](C)C(=O)N[C@@H](Cc1c[nH]c2ccccc12)C(=O)N[C@@H](CC(C)C)C(=O)N[C@H](C(=O)N[C@@H](C)C(=O)NCC(=O)NCC(N)=O)C(C)C)C(C)C)C(=O)O [g675] (H-HGQGTFTSDYSEYLDSK([γGlu-Palmitoyl])RARDFVAWLVAGG-NH2; N-terminus assumed)
123 | 4.52 | 0.106 | CCCCCCCCCCCCCCCC(=O)N[C@@H](CCC(=O)NCCCC[C@H](NC(=O)[C@H](CO)NC(=O)[C@H](CC(=O)O)NC(=O)[C@H](CC(C)C)NC(=O)[C@H](Cc1ccc(O)cc1)NC(=O)[C@H](CCCCN)NC(=O)[C@H](CO)NC(=O)[C@H](Cc1ccc(O)cc1)NC(=O)[C@H](CC(=O)O)NC(=O)[C@H](CO)NC(=O)[C@@H](NC(=O)[C@H](Cc1ccccc1)NC(=O)[C@@H](NC(=O)CNC(=O)[C@H](CCC(N)=O)NC(=O)CNC(=O)[C@@H](N)Cc1c[nH]cn1)[C@@H](C)O)[C@@H](C)O)C(=O)N[C@@H](CCCNC(=N)N)C(=O)N[C@@H](C)C(=O)N[C@@H](CCC(=O)O)C(=O)N[C@@H](CC(=O)O)C(=O)N[C@@H](Cc1ccccc1)C(=O)N[C@H](C(=O)N[C@@H](CCC(N)=O)C(=O)N[C@@H](Cc1c[nH]c2ccccc12)C(=O)N[C@@H](CC(C)C)C(=O)N[C@H](C(=O)N[C@@H](C)C(=O)NCC(=O)NCC(N)=O)C(C)C)C(C)C)C(=O)O [g678] (H-HGQGTFTSDYSKYLDSK([γGlu-Palmitoyl])RAEDFVQWLVAGG-NH2; N-terminus assumed)
